# Test results taken from patent publication US6403618B1, “Agent and method for controlling angiogenesis” (Novactyl, Inc., priority 2000, dated 2002).
# Tests used:
# LoVo cells [1] = experiment: Viability by trypan blue dye exclusion; type: cell-based; settings: 500 μM
# Protocol: As in the case of WI-38, LoVo cell viability after fusaric acid treatment was investigated in logarithmically growing and confluent cells, as shown in Tables 2 and 3. In logarithmically growing LoVo cells, approximately 38% of the attached cells were viable after 30 hours of treatment with fusaric acid. When the cells were treated for 78 hours, only 4.5% of the cell population survived the pronounced cytotoxic actions of fusaric acid. […] Thus, LoVo cells are much more sensitive to the cytotoxic actions of fusaric acid in both growing and confluent population of cells in comparison to normal WI-38 cells.
# MDA-468 cells [2] = type: cell-based, human
# Protocol: As in the case of WI-38, MDA-468 cell viability after fusaric acid treatment was investigated in logarithmically growing and confluent cells. In logarithmically growing MDA-468 cells, less than 20% of the attached cells were viable after 30 hours of treatment with fusaric acid. When the cells were treated for 48 hours, only 0.1% of the cell population survived the pronounced cytotoxic actions of fusaric acid. […] Thus, MDA-468 cells are extremely sensitive to the cytotoxic actions of fusaric acid in both growing and confluent population of cells in comparison to normal WI-38 lines studied.
# KB cells = experiment: Viability by trypan blue dye exclusion; type: cell-based, human; settings: confluent cells, 500 μM, 48 h
# Protocol: To examine KB cell viability in greater detail, the effects of fusaric acid were studied in logarithmically growing and confluent cells. In logarithmically growing KB cells 70% of the cells were viable after 48 hours in 500 μM fusaric acid. […] Thus, in contrast to LoVo cells, a significant proportion of the population of growing (70%) cells and virtually all (95%) of confluent KB cells resisted the pronounced cytotoxic action of fusaric acid (See Tables 3 and 4, above).
# [3] = test system: colon carcinoma LoVo cells; experiment: Effect of fusaric acid on growth (cell number); type: cell-based
# Protocol: After 30 hours of treatment with 500 μM fusaric acid, there was a prominent decrease in cell number. DNA synthesis was completely (100%) inhibited by 24 hours. When treated with 500 μM fusaric acid, the majority of the LoVo cells acquired a rounded morphology by 48 hours.
# These floating cells were not viable. […] However, after 100 hours, an increase in cell number was noted after 25 additional hours.
# [4] = test system: colon carcinoma cell line; experiment: Viability of other human carcinoma cell types; type: cell-based; settings: 48 hours of treatment
# Protocol: (§1) As in previous examples, the following human cell lines were inhibited by similar concentrations of fusaric acid: Prostatic adenocarcinoma, skin carcinoma, colon carcinoma, liver adenocarcinoma and lung adenocarcinoma. For all these cell types, cell viability decreased by approximately 60% after 48 hours of treatment with fusaric acid.
# [5] = test system: liver adenocarcinoma cell line; experiment: Viability of other human carcinoma cell types; type: cell-based; settings: 48 hours of treatment
# Protocol: as §1
# [6] = test system: lung adenocarcinoma cell line; experiment: Viability of other human carcinoma cell types; type: cell-based; settings: 48 hours of treatment
# Protocol: as §1
# [7] = test system: Prostatic adenocarcinoma cell line; experiment: Viability of other human carcinoma cell types; type: cell-based; settings: 48 hours of treatment
# Protocol: as §1
# skin carcinoma cell line = experiment: Viability of other human carcinoma cell types; type: cell-based; settings: 48 hours of treatment
# Protocol: as §1
# WI-38 cells [8] = experiment: Viability by trypan blue dye exclusion; type: cell-based; settings: 500 μM
# Protocol: To examine WI-38 cell viability in greater detail, the effects of fusaric acid were studied in logarithmically growing and contact inhibited confluent cells (Tables 2 and 3). In logarithmically growing WI-38 cells approximately 76% of the cells were viable after 30 hours of treatment with fusaric acid. When the cells were treated for 78 hours, only 26% of the cell population survived the pronounced cytotoxic actions of fusaric acid.
# WI-38 cells [9] = experiment: Effect of fusaric acid on growth (cell number); type: cell-based
# Description: The remaining cells were spread on the substratum in normal manner without any visible mitosis for 4 days after removal of the drug.
# MDA-468 cells [10] = experiment: DNA synthesis; type: cell-based; settings: Homo sapiens, by 24 hr, read-out: DNA synthesis inhibited
# Protocol: (§2) After 12-24 hours of treatment with 500 μM fusaric acid, there was no further increase in cell number. […] These floating cells were not viable. Within 30 hours of treatment there was a 65% decrease in cell number. […] After 96 hours, less than 10% of the original population remained attached to the dish and no change in cell number was noted after one additional week.
# WI-38 cells [11] = experiment: Effect of different doses of fusaric acid on total cell protein; type: cell-based; settings: WI-38, 1 mM
# Protocol: (§3) In initial experiments to examine the effects of fusaric acid on cell growth and viability, WI-38 and LoVo cells were incubated for 24 to 72 hours in medium with or without various doses of fusaric acid (0.1-1 mM). The growth of both WI-38 and LoVo cells was inhibited by 500 μM fusaric acid in a time and dose dependent manner, as shown below in Table 2.
# LoVo cells [12] = experiment: as above; type: cell-based
# Protocol: as §3
# [13] = test system: human breast adenocarcinoma MDA-468 cells; experiment: Effect of fusaric acid on growth (cell number); type: cell-based
# Protocol: as §2
# [14] = logarithmic growth, 30 h, listed as Fusaric Acid
# [15] = 500 μM, within 30 hours of treatment
smiles,measurement,setting,value
CCCCc1ccc(C(=O)O)nc1 [fusaric acid],% Survival,"LoVo cells [1]; confluent cells, 48 h",40%
same,% Survival,"LoVo cells [1]; logarithmic growth, 30 h",approximately 38%
same,% Survival,LoVo cells [1]; [14],38.5%
same,% Survival,"LoVo cells [1]; logarithmic growth, 78 h",4.5%
same,cells survived,"MDA-468 cells [2]; confluent cells, 500 μM, 48 hours",10%
same,attached cells viable,"MDA-468 cells [2]; logarithmic growth, 30 hours",less than 20%
same,cell population survived,"MDA-468 cells [2]; logarithmic growth, 48 hours",0.1%
same,% Survival,KB cells,95%
same,decrease in cell number,[3]; [15],60%
same,decline of cell population after removal of the drug,"[3]; removal after 30 hours, up to approximately 100 hours",~80%
same,cell viability decreased,[4],approximately 60%
same,cell viability decreased,[5],approximately 60%
same,cell viability decreased,[6],approximately 60%
same,cell viability decreased,[7],approximately 60%
same,cell viability decreased,skin carcinoma cell line,approximately 60%
same,% Survival,"WI-38 cells [8]; confluent cells, 48 h",100%
same,% Survival,WI-38 cells [8]; [14],76.4%
same,% Survival,"WI-38 cells [8]; logarithmic growth, 78 h",26%
same,decrease in cell number,"WI-38 cells [9]; 30 hours with 500 μM, then 4 days in normal media",30%
same,cells survived,"WI-38 cells [9]; after removal of fusaric acid, 500 μM for 30 hours",> 95%
same,inhibition at 500 µM,MDA-468 cells [10],100%
same,Monolayer Protein,WI-38 cells [11]; 24 h,236 μg/dish
same,Monolayer Protein,WI-38 cells [11]; 48 h,202 μg/dish
same,cytotoxicity,"LoVo cells [12]; 1 mM fusaric acid, by 24 hours",extensive cytotoxicity
same,Monolayer Protein,"LoVo cells [12]; LoVo, 0.5 mM, 48 h",90 μg/dish
same,decrease in cell number,[13]; [15],65%
same,original population remaining attached to the dish,"[13]; drug removed after 30 hours, after 96 hours",less than 10%
